“Also recorded” adds a separate entry of the source.
Key:
[1] = test system: H3K27me3 in HS-SY-II xenograft; test: H3K27me3 by ELISA in HS-SY-II xenograft tumors harvested on Day 28 (second study); format: in vivo, mice; conditions: Day 28, 3 h after the last dose
Method: FIGS. 10A to 10C show mean in vivo tumor volumes for athymic nude mice bearing HS-SY-II xenografts. In a first study, mice were dosed with either vehicle (oral for 28 days or iv on Day 1 and Day 22), Compound A (oral: 125 mg/kg, 250 mg/kg, or 500 mg/kg for 28 days), or Doxorubicin (iv: 10 mg/kg, Day 1 and Day 22); tumor volumes were measured twice a week (FIGS. 10A and 10B). In a second study, mice were dosed with either vehicle (oral for 28 days), Compound A (oral: 250 mg/kg or 500 mg/kg for 28 days), Doxorubicin (iv: 10 mg/kg on Day 1 and Day 22), or a combination of Doxorubicin (iv: 10 mg/kg on Day 1 and Day 22) and Compound A (oral: 250 mg/kg for 28 days) (FIG. 10C). Tumors from animals of the second study were harvested on Day 28 (3 h after the last dose) and subjected to H3K27me3 analysis by ELISA (FIG. 10D) or IHC for the proliferation marker Ki67 (FIG. 10E).
For FIG. 10D, tumors were snap-frozen in liquid nitrogen. […] Histones were quantified using the BCA protein assay (23225, Pierce). […] Subsequently, the developed colors in the wells were measured using a plate spectrophotometer (SpectraMax 250, Molecular Devices) at 450 nm (reference wavelength 650 nm). The H3K27me3 levels were adjusted to total histone H3, and expressed as fold changes to vehicle control. […] Histones were extracted and quantified, and the levels of H3K27me3 were analyzed as described above. […]

SW982 cells = test: Adherent cell line long-term (14-day) proliferation assay, CellTiter-Glo; format: cell-based, human; conditions: SW982, 14-day long-term proliferation assay
Method: (§1) 96-well plating for 7 day assay: For each adherent cell line, plated cells in a volume of 100 μL in 96-well plates, to be treated in triplicate, either in the evening (to treat with compound the following day) or in morning (to treat with compound in the evening), to allow cells to attach to plates before compound treatment.
(§2) 6-well plates to be split for 7-14 day assay: Plated 2 mL of cells at the correct density in each well of the 6-well plate. Calculated the correct density from the 96-well plate growth curve by multiplying the 96-well density by 30. The factor 30 came from growth area of the 6-well plate divided by the growth area of the 96-well plate (9.5 cm^2/0.32 cm^2=29.7, rounded up to 30), which corresponds to 30-fold more surface area in a 6-well vs. a 96-well plate.
(§3) Day 0: Treated with compound or DMSO by removing media and adding back either 100 μL (for 96-well plate) or 2 mL (for 6-well plate) media with the correct dilutions of compound/DMSO. Table 1 includes an example of 96-well plate map. Plates were incubated for 96 hours.
(§4) Read one 96-well plate with CellTiter-Glo® for a Day 0 reading (media change not necessary for this plate).
(§5) Day 4: Read one 96-well plate with CellTiter-Glo® for a Day 4 reading (media change not necessary for this plate before reading). Replaced media with fresh media containing compound on Day 4 in 96-well plates and 6-well plates.
(§6) Day 7: read final 96-well plate with CellTiter-Glo®.
(§7) Counted individual wells of 6-well plates, and replated cells to initial plating density in 96-well plates, as described above.
(§8) Repeated steps for Days 0-7 for Days 7-14 of the proliferation assay.
(§9) Particularly, approximately 12 hours before compound treatment, HS-SY-II or SW982 cells were plated at the density of 24,000 cells/well and 7,500 cells/well, respectively in 6-well plates. On day 0, cells were treated with either DMSO or compound starting at 10 μmol/L and decreasing in fourfold dilutions. On day 7, the cells in 6-well plates were trypsinized, counted by TC10 automated cell counter (Bio-Rad, Richmond, Calif.) and replated at the density of 800 cells/well and 250 cells/well for HS-SY-II and SW982, respectively in 96-well plates in triplicate. The cells were allowed to adhere to the plate overnight, and treated with either DMSO or compound as on Day 0. On days 0, 7, 11, and 14, cell viability was determined by CellTiter-Glo® Luminescent Cell Viability Assay (Promega) with EnVision 2103 Multilabel Reader (Perkin-Elmer, Wellesley, Mass.). Compound/media was changed with new one on Day 4 and 11. The ratios of the measured values on Days 7, 11, and 14 to that of day 7 were used to plot proliferation from day 7 to day 14, and to calculate the IC50 values on Day 14. […]

HS-SY-II cells = test: as above; format: cell-based, human; conditions: 14-day long-term proliferation assay
Method: as §1, §2, §3, §4, §5, §6, §7, §8, §9

CCN(c1cc(-c2ccc(CN3CCOCC3)cc2)cc(C(=O)NCc2c(C)cc(C)[nH]c2=O)c1C)C1CCOCC1 [Compound A]
H3K27me3 levels in tumors [1]: significantly reduced | sensitivity of cell proliferation (SW982 cells): are not; also recorded: did not; also recorded: not sensitive | sensitivity of cell proliferation (HS-SY-II cells): highly sensitive; also recorded: high sensitivity
